Structures can show the parent of a compound that is named as a salt. Where two headings read alike, the source gives them in different places.
What was measured:
Type in all cases: biochemical
recombinant PRL-3 = target: T1, recombinant PRL-3 (Homo sapiens, UniProt O75365); test: In vitro phosphatase assay (DiFMUP hydrolysis), PRL-3; further: test concentration or dose not given here
T1 construct: 6xHis (N, cleaved yes); made in house; host or cells: E. coli One Shot BL21 Star

recombinant PRL-2 = target: T2, recombinant PRL-2 (Homo sapiens, UniProt Q12974); test: In vitro phosphatase assay (DiFMUP hydrolysis), PRL-2;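 further: PRL-2 activity read as DiFMUP hydrolysis after 20 min at room temperature with drug, enzyme first pre-reduced at 4 °C for 20 min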
T2 construct: 6xHis (N, cleaved yes); made in house; host or cells: E. coli One Shot BL21 Star
T2 sequence (Q12974 1-167): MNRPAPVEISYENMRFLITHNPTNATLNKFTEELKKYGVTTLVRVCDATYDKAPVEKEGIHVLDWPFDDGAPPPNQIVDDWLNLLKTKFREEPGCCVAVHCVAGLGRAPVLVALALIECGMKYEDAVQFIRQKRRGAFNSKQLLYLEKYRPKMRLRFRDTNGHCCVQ

recombinant PRL-1 = target: T3, recombinant PRL-1 (Homo sapiens, UniProt Q93096); test: In vitro phosphatase assay (DiFMUP hydrolysis), PRL-1; further: test concentration or dose not given here
T3 construct: 6xHis (N, cleaved yes); made in house; host or cells: E. coli One Shot BL21 Star
T3 sequence (Q93096 1-173): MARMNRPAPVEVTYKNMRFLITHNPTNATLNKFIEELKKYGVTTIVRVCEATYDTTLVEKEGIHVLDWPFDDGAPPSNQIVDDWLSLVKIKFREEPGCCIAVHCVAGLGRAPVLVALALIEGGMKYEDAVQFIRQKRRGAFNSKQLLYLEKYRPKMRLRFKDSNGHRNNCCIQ

[1] = FDA-approved drug screen, compared to DMSO

T1 sequence (O75365 whole entry): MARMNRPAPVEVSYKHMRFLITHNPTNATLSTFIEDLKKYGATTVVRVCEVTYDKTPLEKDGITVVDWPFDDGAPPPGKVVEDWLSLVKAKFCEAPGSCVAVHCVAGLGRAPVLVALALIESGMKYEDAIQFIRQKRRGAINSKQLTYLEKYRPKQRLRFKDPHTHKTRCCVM

## Cc1nc2c([nH]1)-c1ccccc1N(C(=O)c1ccc(NC(=O)c3ccccc3-c3ccccc3)cc1)CC2.Cl [Conivaptan HCl]
Recombinant PRL-3; [1]
  % Phosphatase Activity (compared to DMSO) PRL-3: 85%
Recombinant PRL-2; [1]
  % Phosphatase Activity (compared to DMSO) PRL-2: 106%
Recombinant PRL-1; [1]
  % Phosphatase Activity (compared to DMSO) PRL-1: 95%

## CC(=O)OCC(=O)[C@@]1(O)CC[C@H]2[C@@H]3CCC4=CC(=O)CC[C@]4(C)[C@H]3C(=O)C[C@@]21C [Cortisone acetate]
Recombinant PRL-3; [1]
  % Phosphatase Activity (compared to DMSO) PRL-3: 78%
Recombinant PRL-2; [1]
  % Phosphatase Activity (compared to DMSO) PRL-2: 94%
Recombinant PRL-1; [1]
  % Phosphatase Activity (compared to DMSO) PRL-1: 98%

## O=c1ccc2ccccc2o1 [Coumarin]
Recombinant PRL-3; [1]
  % Phosphatase Activity (compared to DMSO) PRL-3: 76%
Recombinant PRL-2; [1]
  % Phosphatase Activity (compared to DMSO) PRL-2: 98%
Recombinant PRL-1; [1]
  % Phosphatase Activity (compared to DMSO) PRL-1: 92%

## CC1(COc2ccc3c(c2)ncn3-c2ccc3cccc(N4CCC(N)CC4)c3n2)COC1 [Crenolanib (CP-868596)]
Recombinant PRL-3; [1]
  % Phosphatase Activity (compared to DMSO) PRL-3: 105%
Recombinant PRL-2; [1]
  % Phosphatase Activity (compared to DMSO) PRL-2: 115%
Recombinant PRL-1; [1]
  % Phosphatase Activity (compared to DMSO) PRL-1: 117%

## CN(C)c1ccc(C(=C2C=CC(=[N+](C)C)C=C2)c2ccc(N(C)C)cc2)cc1 [Crystal Violet]
Recombinant PRL-3; [1]
  % Phosphatase Activity (compared to DMSO) PRL-3: 85%
Recombinant PRL-2; [1]
  % Phosphatase Activity (compared to DMSO) PRL-2: 86%
Recombinant PRL-1; [1]
  % Phosphatase Activity (compared to DMSO) PRL-1: 79%

## COc1cc(/C=C/C(=O)CC(=O)/C=C/c2ccc(O)c(OC)c2)ccc1O [Curcumin]
Recombinant PRL-3; [1]
  % Phosphatase Activity (compared to DMSO) PRL-3: 85%
Recombinant PRL-2; [1]
  % Phosphatase Activity (compared to DMSO) PRL-2: 77%
Recombinant PRL-1; [1]
  % Phosphatase Activity (compared to DMSO) PRL-1: 78%

## CC1CC(OC(=O)C(O)c2ccccc2)CC(C)(C)C1 (stereo not drawn) [Cyclandelate]
Recombinant PRL-3; [1]
  % Phosphatase Activity (compared to DMSO) PRL-3: 74%
Recombinant PRL-2; [1]
  % Phosphatase Activity (compared to DMSO) PRL-2: 84%
Recombinant PRL-1; [1]
  % Phosphatase Activity (compared to DMSO) PRL-1: 82%

## CN1CCN(C(c2ccccc2)c2ccccc2)CC1.Cl.Cl [Cyclizine 2HCl]
Recombinant PRL-3; [1]
  % Phosphatase Activity (compared to DMSO) PRL-3: 69%
Recombinant PRL-2; [1]
  % Phosphatase Activity (compared to DMSO) PRL-2: 116%
Recombinant PRL-1; [1]
  % Phosphatase Activity (compared to DMSO) PRL-1: 94%

## CN(C)CCC=C1c2ccccc2C=Cc2ccccc21 [Cyclobenzaprine HCl]
Recombinant PRL-3
  % Phosphatase Activity (compared to DMSO) PRL-3: 85%
Recombinant PRL-2
  % Phosphatase Activity (compared to DMSO) PRL-2: 103%
Recombinant PRL-1
  % Phosphatase Activity (compared to DMSO) PRL-1: 104%

## O=P1(N(CCCl)CCCl)NCCCO1 (stereo not drawn) [Cyclophosphamide Monohydrate]
Recombinant PRL-3
  % Phosphatase Activity (compared to DMSO) PRL-3: 94%
Recombinant PRL-2
  % Phosphatase Activity (compared to DMSO) PRL-2: 105%
Recombinant PRL-1
  % Phosphatase Activity (compared to DMSO) PRL-1: 90%

## CN1CCC(=C2c3ccccc3C=Cc3ccccc32)CC1 [Cyproheptadine hydrochloride]
Recombinant PRL-3; [1]
  % Phosphatase Activity (compared to DMSO) PRL-3: 84%
Recombinant PRL-2; [1]
  % Phosphatase Activity (compared to DMSO) PRL-2: 102%
Recombinant PRL-1; [1]
  % Phosphatase Activity (compared to DMSO) PRL-1: 93%

## CC(=O)O[C@]1(C(C)=O)CC[C@H]2[C@@H]3C=C(Cl)C4=CC(=O)[C@@H]5C[C@@H]5[C@]4(C)[C@H]3CC[C@@]21C [Cyproterone Acetate]
Recombinant PRL-3; [1]
  % Phosphatase Activity (compared to DMSO) PRL-3: 99%
Recombinant PRL-2; [1]
  % Phosphatase Activity (compared to DMSO) PRL-2: 91%
Recombinant PRL-1; [1]
  % Phosphatase Activity (compared to DMSO) PRL-1: 92%

## Nc1nc(N)nc(NC2CC2)n1 [Cyromazine]
Recombinant PRL-3; [1]
  % Phosphatase Activity (compared to DMSO) PRL-3: 78%
Recombinant PRL-2; [1]
  % Phosphatase Activity (compared to DMSO) PRL-2: 101%
Recombinant PRL-1; [1]
  % Phosphatase Activity (compared to DMSO) PRL-1: 90%

## Cl.NCCS [Cysteamine HCl]
Recombinant PRL-3; [1]
  % Phosphatase Activity (compared to DMSO) PRL-3: 70%
Recombinant PRL-2; [1]
  % Phosphatase Activity (compared to DMSO) PRL-2: 79%
Recombinant PRL-1; [1]
  % Phosphatase Activity (compared to DMSO) PRL-1: 91%

## Nc1ccn([C@@H]2O[C@H](CO)[C@@H](O)[C@@H]2O)c(=O)n1 [Cytarabine]
Recombinant PRL-3; [1]
  % Phosphatase Activity (compared to DMSO) PRL-3: 91%
Recombinant PRL-2; [1]
  % Phosphatase Activity (compared to DMSO) PRL-2: 86%
Recombinant PRL-1; [1]
  % Phosphatase Activity (compared to DMSO) PRL-1: 104%

## CC(C)(CO)[C@@H](O)C(=O)NCCCO [D panthenol]
Recombinant PRL-3; [1]
  % Phosphatase Activity (compared to DMSO) PRL-3: 90%
Recombinant PRL-2; [1]
  % Phosphatase Activity (compared to DMSO) PRL-2: 80%
Recombinant PRL-1; [1]
  % Phosphatase Activity (compared to DMSO) PRL-1: 93%

## OC[C@@H](O)[C@@H](O)[C@H](O)[C@H](O)CO [D-Mannitol]
Recombinant PRL-3; [1]
  % Phosphatase Activity (compared to DMSO) PRL-3: 104%
Recombinant PRL-2; [1]
  % Phosphatase Activity (compared to DMSO) PRL-2: 101%
Recombinant PRL-1; [1]
  % Phosphatase Activity (compared to DMSO) PRL-1: 93%

## CCN(CC)C(=O)c1cccc(C)c1 [DEET]
Recombinant PRL-3; [1]
  % Phosphatase Activity (compared to DMSO) PRL-3: 85%
Recombinant PRL-2; [1]
  % Phosphatase Activity (compared to DMSO) PRL-2: 77%
Recombinant PRL-1; [1]
  % Phosphatase Activity (compared to DMSO) PRL-1: 95%

## CCCCCCOC(=O)N=C(N)c1ccc(NCc2nc3cc(C(=O)N(CCC(=O)OCC)c4ccccn4)ccc3n2C)cc1 [Dabigatran Etexilate]
Recombinant PRL-3; [1]
  % Phosphatase Activity (compared to DMSO) PRL-3: 106%
Recombinant PRL-2; [1]
  % Phosphatase Activity (compared to DMSO) PRL-2: 112%
Recombinant PRL-1; [1]
  % Phosphatase Activity (compared to DMSO) PRL-1: 121%

## CC(C)(C)c1nc(-c2cccc(NS(=O)(=O)c3c(F)cccc3F)c2F)c(-c2ccnc(N)n2)s1 [Dabrafenib (GSK2118436)]
Recombinant PRL-3; [1]
  % Phosphatase Activity (compared to DMSO) PRL-3: 86%
Recombinant PRL-2; [1]
  % Phosphatase Activity (compared to DMSO) PRL-2: 82%
Recombinant PRL-1; [1]
  % Phosphatase Activity (compared to DMSO) PRL-1: 81%

## CN(C)/N=N/c1[nH]cnc1C(N)=O [Dacarbazine]
Recombinant PRL-3; [1]
  % Phosphatase Activity (compared to DMSO) PRL-3: 76%
Recombinant PRL-2; [1]
  % Phosphatase Activity (compared to DMSO) PRL-2: 98%
Recombinant PRL-1; [1]
  % Phosphatase Activity (compared to DMSO) PRL-1: 92%

## COC(=O)N[C@H](C(=O)N1CCC[C@H]1c1ncc(-c2ccc(-c3ccc(-c4cnc([C@@H]5CCCN5C(=O)[C@@H](NC(=O)OC)C(C)C)[nH]4)cc3)cc2)[nH]1)C(C)C [Daclatasvir (BMS-790052)]
Recombinant PRL-3; [1]
  % Phosphatase Activity (compared to DMSO) PRL-3: 236%
Recombinant PRL-2; [1]
  % Phosphatase Activity (compared to DMSO) PRL-2: 324%
Recombinant PRL-1; [1]
  % Phosphatase Activity (compared to DMSO) PRL-1: 320%

## COc1cc2ncnc(Nc3ccc(F)c(Cl)c3)c2cc1NC(=O)/C=C/CN1CCCCC1 [Dacomitinib (PF299804, PF299)]
Recombinant PRL-3; [1]
  % Phosphatase Activity (compared to DMSO) PRL-3: 120%
Recombinant PRL-2; [1]
  % Phosphatase Activity (compared to DMSO) PRL-2: 147%
Recombinant PRL-1; [1]
  % Phosphatase Activity (compared to DMSO) PRL-1: 145%

## CN1C[C@@H]2C[C@H]1CN2c1cc2c(cc1F)c(=O)c(C(=O)O)cn2C1CC1.CS(=O)(=O)O [Danofloxacin Mesylate]
Recombinant PRL-3; [1]
  % Phosphatase Activity (compared to DMSO) PRL-3: 146%
Recombinant PRL-2; [1]
  % Phosphatase Activity (compared to DMSO) PRL-2: 757%
Recombinant PRL-1; [1]
  % Phosphatase Activity (compared to DMSO) PRL-1: 998%

## O=C1c2cccc(O)c2C(=O)c2c(O)cccc21 [Danthron]
Recombinant PRL-3; [1]
  % Phosphatase Activity (compared to DMSO) PRL-3: 78%
Recombinant PRL-2; [1]
  % Phosphatase Activity (compared to DMSO) PRL-2: 96%
Recombinant PRL-1; [1]
  % Phosphatase Activity (compared to DMSO) PRL-1: 96%

## O=C1CN(/N=C/c2ccc(-c3ccc([N+](=O)[O-])cc3)o2)C(O)=N1 [Dantrolene sodium]
Recombinant PRL-3; [1]
  % Phosphatase Activity (compared to DMSO) PRL-3: 60%
Recombinant PRL-2; [1]
  % Phosphatase Activity (compared to DMSO) PRL-2: 75%
Recombinant PRL-1; [1]
  % Phosphatase Activity (compared to DMSO) PRL-1: 76%

— PMC8119466, “A screen of FDA-approved drugs identifies inhibitors of protein tyrosine phosphatase 4A3 (PTP4A3 or PRL-3)” (Scientific Reports, 2021)
